This passage reports Ki results from patent US8481738B2, “Gonadotropin-releasing hormone receptor antagonists and methods relating thereto” (Neurocrine Biosciences, Inc., priority 2007, dated 2013).

Structures are written as SMILES. A value given as a limit tells only on which side of the number the result lay.

This assay concerns the target T1, human GnRH receptor (Homo sapiens, UniProt P30968).
T1 construct: expressed in transfected cells; host or cells: RBL cells, stably transfected (in general)
T1 sequence (P30968 1-328): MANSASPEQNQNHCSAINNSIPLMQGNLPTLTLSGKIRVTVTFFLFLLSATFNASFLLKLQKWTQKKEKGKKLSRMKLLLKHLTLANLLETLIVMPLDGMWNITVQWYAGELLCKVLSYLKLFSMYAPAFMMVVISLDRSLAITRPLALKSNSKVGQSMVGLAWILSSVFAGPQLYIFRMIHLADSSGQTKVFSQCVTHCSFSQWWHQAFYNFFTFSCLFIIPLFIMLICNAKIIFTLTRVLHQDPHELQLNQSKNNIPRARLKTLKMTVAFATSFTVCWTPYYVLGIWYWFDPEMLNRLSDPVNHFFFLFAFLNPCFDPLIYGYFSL
Kind of assay: Peptide competition radioligand binding displacement assay, human GnRH receptor membranes. Conditions: one or more of the peptide competition human receptor binding assays. On the procedure:
cDNA's of human, rhesus macaque, rabbit, dog and rat GnRH receptors are cloned into pcDNA3.1 (+) (Invitrogen). Full length sequences of all receptors are confirmed by DNA sequencing. HEK 293, CHO, COS-7, or rat basophilic leukemia (RBL) cells are stably transfected with human, rat, or macaque GnRH receptors and high expressing single cell clones (Bmax≧0.4 pMol/mg membrane protein) are isolated and maintained in Dulbecco's Modified Eagles Medium (DMEM) with following supplements: 10 mM HEPES; 2 mM L-glutamine; 1 mM Sodium Pyruvate; 50 U/mL penicillin, 50 μg/mL streptomycin; 10% Heat-inactivated Fetal Bovine Serum and 200 μg/mL Geneticin (G-418-Sulfate). Non-essential amino acids (0.1 mM) (Irvine Scientific; Santa Ana, Calif.) are included in the RBL cell media.
In general, initial peptide radioligand binding assays are carried out using membranes from stably transfected RBL cells. RBL stable clones are found to more consistently express high levels of GnRH receptor and are therefore used for subsequent binding studies as well as Ca^++ flux and inositol phosphate accumulation assays. Transiently transfected COS-7 cells are used for preparation of membranes containing GnRH receptors from multiple species (as well as those of mutant receptors for other studies) because of the convenience for rapidly analyzing multiple receptors.
HEK293 cells stably transfected with the human GnRH receptor are grown for two days after achieving confluence then are harvested by striking tissue culture flasks against a firm surface. Cells are collected by centrifugation at 1000 g for 5 minutes. Cell pellets are resuspended in 5% sucrose and homogenized using a polytron homogenizer for two 15 second homogenization steps. Cell homogenates are then centrifuged for 5 minutes at 3000 g to remove nuclei and the supernatant subsequently centrifuged for 30 minutes at 44,000 g to collect the membrane fraction. The membrane pellet is resuspended in GnRH binding buffer (10 mM HEPES, pH 7.5, 150 mM NaCl and 0.1% BSA) and aliquots immediately snap-frozen in liquid nitrogen and stored at −80° C. Protein content of the membrane suspension is determined using the Bio-Rad protein assay kit (Bio-Rad).
RBL cells stably transfected with the human GnRH receptor are grown to 80% confluency prior to harvesting. The cells are incubated at 37° C. for 10 min in 0.5 mM EDTA/PBS (Ca^++, Mg^++ free), and are dislodged from the plate by gentle rapping of the flasks. Cells are collected and pelleted by centrifugation at 1000 g for 5 minutes. Cell pellets are resuspended in buffer (DPBS supplemented with 10 mM MgCl2, 2 mM EGTA, pH=7.4), and cell lysis is performed using a pressure cell and applying N2 at a pressure of 900 psi for 30 min at 4° C. Unbroken cells and larger debris were removed by centrifugation at 1200 g for 10 min at 4° C. The cell membrane supernatant is then centrifuged at 45,000 g and the resulting membrane pellet is resuspended in assay buffer and homogenized on ice using a tissue homogenizer. Protein concentrations are determined using the Coomassie Plus Protein Reagent kit. Membranes are aliquoted and stored at −80° C. until ready for use.
COS-7 cells transiently transfected with GnRH receptors from different species (human, macaque, dog, rabbit, rat) or mutant GnRH receptors are prepared by bulk electroporation. COS-7 cells are obtained from American Type Cell Culture (Manassas, Va.) and are maintained in Dulbeccos's modified Eagle's medium (DMEM) (MediaTech Inc., Herndon, Va.) containing 10% fetal bovine serum, 10 mM HEPES, 2 mM L-glutamine, 1 mM sodium pyruvate, 50 U/mL penicillin, 50 μg/mL streptomycin. COS-7 cells are seeded in 500 cm^2 tissue culture plates and grown to confluency prior to cell transfection. […]

Compound `COC(=O)CCCOc1c(F)cccc1N(C)C(=O)c1ccc(Cl)c(-c2cnc(C(F)(F)F)cc2C#N)c1` [3-12] showed a Ki not above 100 nM.

Turning to `Cc1cc(Cl)cnc1-c1cc(C(=O)N(C)c2c(C)cccc2C)ccc1Cl` [2-63], the Ki is not above 100 nM.

In turn, `COc1ccccc1N(C)C(=O)c1cc(-c2cnc(C(F)(F)F)cc2C#N)c(Cl)cc1OCCCC(=O)OCOC(=O)C(C)(C)C` [36-2, 4-{5-chloro-4-(4-cyano-6-trifluoromethyl-pyridin-3-yl)-2-[(2-methoxy-phenyl)-methyl-carbamoyl]-phenoxy}-butyric acid 2,2-dimethyl-propionyloxymethyl ester] yielded a Ki not above 100 nM.

Regarding `COc1cc(Cl)c(-c2cnc(C(F)(F)F)cc2C#N)cc1C(=O)N(C)c1c(F)cccc1F` [39-6], the inhibitory constant (Ki) was not above 100 nM.

On to `COc1ccccc1N(C)C(=O)c1cc(-c2cnc(C(F)(F)F)cc2C#N)c(Cl)cc1OCCNS(C)(=O)=O` [48-1, 4-Chloro-5-(4-cyano-6-trifluoromethyl-pyridin-3-yl)-2-(2-methanesulfonylamino-ethoxy)-N-(2-methoxy-phenyl)-N-methyl-benzamide], for which the inhibition constant Ki is not above 100 nM.

Compound `COCc1ccccc1N(C)C(=O)c1cc(-c2cnc(C(F)(F)F)cc2C#N)c(Cl)cc1OCCCC(=O)O` [34-5] gave a Ki not above 100 nM.

Consider `CN(C(=O)c1ccc(Cl)c(-c2nc3cccc(F)c3cc2C#N)c1)c1ccccc1OCCCC(=O)O` [33-1, 4-(2-{[4-Chloro-3-(3-cyano-5-fluoro-quinolin-2-yl)-benzoyl]-methyl-amino}-phenoxy)-butyric acid], for which the inhibitory constant (Ki) is not above 100 nM.

The compound `COc1ccccc1N(C)C(=O)c1ccc(Cl)c(-c2ncc(C)cc2C)c1` [2-60] came in with a Ki not above 100 nM.

With `CC(OC(=O)CCOc1ccccc1N(C)C(=O)c1ccc(Cl)c(-c2cnc(C(F)(F)F)cc2C#N)c1)OC(=O)OC1CCCCC1` (stereo not drawn) [37-1, 3-(2-{[4-Chloro-3-(4-cyano-6-trifluoromethyl-pyridin-3-yl)-benzoyl]-methyl-amino}-phenoxy)-propionic acid 1-cyclohexyloxycarbonyloxy-ethyl ester], the inhibition constant Ki was not above 100 nM.

For the compound `COc1cccc(C)c1N(C)C(=O)c1ccc(Cl)c(-c2cnc(C#N)cc2C)c1` [2-34], the Ki is not above 100 nM.

`CN(C(=O)c1cc(-c2cnc(C(F)(F)F)cc2C#N)c(Cl)cc1OCCCC(=O)O)c1ccccc1-c1cnco1` [34-15] came in with an inhibition constant (Ki) not above 100 nM.

For `Cc1cc(C(F)(F)F)ncc1-c1cc(C(=O)N(C)c2ccccc2OCCC(=O)O)ccc1Cl` [11-3], the Ki was not above 100 nM.

With `COc1ccccc1N(C)C(=O)c1cc(-c2cnc(C(F)(F)F)cc2C#N)c(Cl)cc1OCCCn1cncn1` [42-13], the Ki is not above 100 nM.

`COc1ccccc1N(C)C(=O)c1ccc(Cl)c(-c2ncc(Cl)cc2Cl)c1` [19-2, 4-chloro-3-(3,5-dichloro-pyridin-2-yl)-N-(2-methoxy-phenyl)-N-methyl-benzamide]: the Ki is not above 100 nM.

Compound `COc1ccccc1CCOc1cc(Cl)c(-c2cnc(C(F)(F)F)cc2C#N)cc1C(=O)N(C)c1ccccc1OC` [46-2] yielded a Ki not above 100 nM.

`COC(=O)c1ccccc1N(C)C(=O)c1ccc(Cl)c(-c2ncc(Cl)cc2C)c1` [2-72] yielded a Ki not above 100 nM.

`COc1cccc(C)c1N(C)C(=O)c1ccc(Cl)c(-c2cnc(Cl)cc2C)c1` [2-31, 4-chloro-3-(6-chloro-4-methyl-pyridin-3-yl)-N-(2-methoxy-6-methyl-phenyl)-N-methyl-benzamide] gave a Ki not above 100 nM.

Take `COc1c(Cl)cccc1N(C)C(=O)c1ccc(Cl)c(-c2cnc(C)cc2Cl)c1` [2-46]: the Ki is not above 100 nM.

`Cc1ccccc1N(C)C(=O)c1cc(-c2cnc(C(F)(F)F)cc2C#N)c(Cl)cc1OCCCC(=O)O` [20-1, 4-[5-Chloro-4-(4-cyano-6-trifluoromethyl-pyridin-3-yl)-2-(methyl-o-tolyl-carbamoyl)-phenoxy]-butyric acid] returned an inhibition constant (Ki) not above 100 nM.

`COc1cc(Cl)c(-c2cnc(C(F)(F)F)cc2C#N)cc1C(=O)N(C)c1c(C)cccc1C` [39-1, 4-Chloro-5-(4-cyano-6-trifluoromethyl-pyridin-3-yl)-N-(2,6-dimethyl-phenyl)-2-methoxy-N-methyl-benzamide] returned a Ki not above 100 nM.

`CN(C(=O)c1ccc(Cl)c(-c2cnc(C(F)(F)F)cc2C#N)c1)c1ccccc1CCCC(=O)O` [14-4] had a Ki not above 100 nM.

Regarding `COc1ccccc1N(C)C(=O)c1cc(-c2cnc(C(F)(F)F)cc2C#N)c(Cl)cc1OCCOc1ccccn1` [42-8], the inhibition constant (Ki) is not above 100 nM.

`Cc1cc(Cl)c(-c2cc(C(=O)N(C)c3c(C)cccc3C)ccc2Cl)cn1` [2-19] returned a Ki not above 100 nM.

`Cc1cnc(-c2cc(C(=O)N(C)c3c(C)cccc3C)ccc2Cl)c(Cl)c1` [2-64] showed a Ki not above 100 nM.

Compound `COc1ccccc1N(C)C(=O)c1ccc(Cl)c(-c2ncc(Cl)cc2C)c1` [2-57] gave an inhibitory constant (Ki) not above 100 nM.

As for `COc1ccccc1N(C)C(=O)c1cc(-c2cnc(C(F)(F)F)cc2C#N)c(Cl)cc1OCCCc1nnn[nH]1` [35-1, 4-Chloro-5-(4-cyano-6-trifluoromethyl-pyridin-3-yl)-N-(2-methoxy-phenyl)-N-methyl-2-[3-(1H-tetrazol-5-yl)-propoxy]-benzamide], the Ki is not above 100 nM.

The compound `Cc1ccccc1N(C)C(=O)c1cc(-c2nc3ccccc3cc2C#N)c(Cl)cc1OCCCC(=O)O` [20-3] registered a Ki not above 100 nM.

Regarding `COc1ccccc1N(C)C(=O)c1cc(-c2cnc(C(F)(F)F)cc2C#N)c(Cl)cc1OCCN(C)C(=O)C(F)(F)F` [47-5], the Ki is not above 100 nM.

The compound `CN(C(=O)c1ccc(Cl)c(-c2nc3ccccc3cc2C#N)c1)c1ccccc1OCCCO` [10-2, 4-chloro-3-(3-cyano-quinolin-2-yl)-N-[2-(3-hydroxy-propoxy)-phenyl]-N-methyl-benzamide] came in with a Ki not above 100 nM.

On to `Cc1cc(C(F)(F)F)ncc1-c1cc(C(=O)N(C)c2cccc(F)c2OCCCC(=O)O)ccc1Cl` [4-7], for which the Ki was not above 100 nM.

`COc1ccccc1N(C)C(=O)c1cc(-c2cnc(C(F)(F)F)cc2C#N)c(Cl)cc1OCCCc1ccn(C)n1` [42-14] came in with a Ki not above 100 nM.

As to `COc1ccccc1N(C)C(=O)c1ccc(Cl)c(-c2ccc(C(F)(F)F)nc2)c1` [2-11], the Ki is not above 100 nM.

Consider `COc1ccccc1N(C)C(=O)c1cc(-c2cnc(C(F)(F)F)cc2C#N)c(Cl)cc1OCCCN1CCC[C@H]1C(=O)O` [49-1, (S)-1-(3-{5-Chloro-4-(4-cyano-6-trifluoromethyl-pyridin-3-yl)-2-[(2-methoxy-phenyl)-methyl-carbamoyl]-phenoxy}-propyl)-pyrrolidine-2-carboxylic acid], for which the Ki is not above 100 nM.

In turn, `COc1cccc(C)c1N(C)C(=O)c1ccc(Cl)c(-n2c(C)cc(C(F)(F)F)nc2=O)c1` [30-10] came in with a Ki not above 100 nM.

Regarding `Cc1cccc(OCCCC(=O)O)c1N(C)C(=O)c1ccc(Cl)c(-c2nc3ccccc3cc2C#N)c1` [5-4], the Ki is not above 100 nM.

Take `Cc1cc(Cl)cnc1-c1cc(C(=O)N(C)c2ccccc2F)ccc1Cl` [2-62]: the Ki is not above 100 nM.

`Cc1cc(Cl)c(-c2cc(C(=O)N(C)c3ccccc3F)ccc2Cl)cn1` [2-37] registered a Ki not above 100 nM.

Compound `COc1cccc(C)c1N(C)C(=O)c1cc(-c2nc3ccccc3cc2C#N)c(Cl)cc1OCCCC(=O)O` [22-3] had an inhibition constant Ki not above 100 nM.

Regarding `Cc1cccc(OCCCC(=O)O)c1N(C)C(=O)c1ccc(Cl)c(-c2cnc(C(F)(F)F)cc2C#N)c1` [4-11], the inhibition constant Ki is not above 100 nM.
